A value given as a limit tells only on which side of the number the result lay.

The molecule `c1ccc(CN2CCOC(c3ccccc3)(c3ccccc3)CC2)cc1` displayed a melting point of 72 to 75 °C. With `O=C(O)CN(CC(=O)O)CC(=O)Nc1cc(C(F)(F)F)cc(C(F)(F)F)c1` the figure was 201 °C. `COc1cc2c(cc1OC)-c1ncc(C(N)=O)c(=O)n1CC2` displayed a melting point of 313 to 315 °C. With `O=P(O)(O)C(c1ccc2cc(O)ccc2c1)P(O)(O)=S` (configuration not stated), the melting point fell in the range of 210 to 211 °C. Next, `CC(=O)Nc1ccc(OC(=O)C2CCc3c(c4ccccc4n3C(=O)c3ccccc3)C2)cc1` (configuration not stated): 166 to 168 °C. As for `CC(C)NC1=NS(=O)(=O)c2cc([N+](=O)[O-])ccc2N1`, the melting point is 311 to 313 °C.

The molecule `CN(CCc1ccc(NC(N)=S)cc1)Cc1ccccc1` gave a melting point of 119 to 122 °C.

In turn, `CCCOC1(C=CCCCCC(=O)O)C=CC=CC1` (configuration not stated) came in with a melting point of 52 to 53 °C. With `CC(C)Nc1nccc(C#C[Si](C)(C)C)n1`, the melting point lay in the range of 93 to 94 °C.

The molecule `O=C(O)C=CCCCc1cccc2cncn12` displayed a melting point of 142 to 144 °C. In the case of `COc1ccc(CC(=O)N2CCCCC2CC(c2ccccc2)c2ccccc2)cc1OC` (configuration not stated), the melting point lay in the range of 113 to 114 °C. Take `COc1ccc(-c2nc(N)ncc2-c2ccc(=O)n(C)n2)cc1OC`: the melting point was 232 °C.

On to `OC(CCN1CCN(c2ccccc2)CC1)COc1ccccc1Cl` (configuration not stated), for which the melting point was in the range of 100 to 102 °C. `O=C(Cn1ccnc1)c1ccc(-c2ccncc2)cc1` returned a melting point of 144 to 146 °C. As to `CC(C)C1OC(=Nc2ccccn2)c2c1nc1c(C(F)(F)F)cccc1c2O` (configuration not stated), the melting point is 178 to 180 °C. With `CC=CCn1c(C)c(C)c2cnnc(NCc3ccc(F)cc3)c21` the figure was 135 to 138 °C; with `Cc1cccc(C2CCCN2S(=O)(=O)c2ccc(F)cc2)c1` (racemic), 80 °C; with `COC(=O)C1=C(C)NC(C)=C(C(C)=O)C1c1ccccc1Br` (configuration not stated), 146 to 148 °C.

`O=C1CCCC2=C1C(c1cccc([N+](=O)[O-])c1)C1=C(CCCC1)N2` (configuration not stated) returned a melting point of 218 to 221 °C. The molecule `Cc1cc(-c2cc([N+](=O)[O-])ccc2F)cc(C)n1` came in with a melting point of 169 to 171 °C. `Cc1nc2c(N)nc3cc(OCCNC(=O)OC(C)(C)C)ccc3c2n1CC(C)C` had a melting point of 227 to 228 °C. Take `CCOC(=O)C(O[Si](C)(C)C)C(O[Si](C)(C)C)c1cc(OC)c(OC)cc1[N+](=O)[O-]` (configuration not stated): the melting point lay within 151 to 153 °C. `Cc1ccccc1[C@H]1CC[C@@H](c2ccccc2)N1C(=O)CNC(=O)Nc1cccc(CC(=O)O)c1` (racemic) gave a melting point of 133 °C. `CCOc1cc(-c2cc(C(F)(F)F)n3ncc(C(=O)Nc4nc(C)c(S(N)(=O)=O)s4)c3n2)ccc1C(F)(F)F`: the melting point was found to be 300 °C. The molecule `Cc1cccc2c(Nc3ccc(OCCCCN(CCCl)CCCl)cc3)c3cccc(C(=O)NCCN(C)C)c3nc12` returned a melting point of 166 to 167 °C. The molecule `CCC1(Br)Cc2cc(OCC(=O)O)c(Cl)c(Cl)c2C1=O` (configuration not stated) showed a melting point of 189 to 191 °C. Turning to `CS(=O)(=O)c1c(N2CCN(C(=O)c3cccs3)CC2)c2cccnc2n(Cc2ccccc2)c1=O`, the melting point came out at 223 °C.

Take `COc1cc2c(cc1-c1cccnc1)-c1c(-c3cccs3)c3c(n1CC2)C(=O)N(C(C)C)CCNC3`: the melting point lay within 227 to 229 °C. On to `ClCCOc1cccc(OCCCl)c1`, for which the melting point lay in the range of 104 to 105 °C. With `N#Cc1ccc(N2CCC(CO)CC2)cc1` the figure was 148 to 150 °C; with `CCOC(=O)c1c(O)c2cc(Cl)ccc2n(C)c1=O`, 141 to 143 °C; with `CS(=O)(=O)N1CCC(=C2c3ccccc3CCc3cccnc32)CC1`, 223 to 224 °C.

Molecule `O=c1c2ccccc2nc(-c2ccccc2Cl)n1O` returned a melting point of 211 °C. `CCOC(=O)C(C)Oc1ccc(Oc2nc3ccc(Cl)nc3s2)cc1` (configuration not stated) returned a melting point of 60 to 62 °C. With `Cc1nc(-c2ccccc2)cc(-c2cccc([N+](=O)[O-])c2)c1NC(=O)NCCN(C)C` the figure was 159 to 161 °C; with `N#CC1CN1C(=O)c1cc2ccccc2o1` (configuration not stated), 92 to 94 °C; with `COC(=O)Cc1ccc(OCc2ccc3ccccc3n2)c(OC)c1`, 69 °C. Next, `Cc1ccc(Cn2nc(C(=O)O)c(C)c2-c2ccc(Cl)cc2)cc1Cl`: 162 °C; `COC(=O)c1cc(-c2nc(COc3ccc(CCl)cc3OC)c(C)o2)ccc1C`: 139 to 140 °C; `CCCCCCCCNC(=O)ON=C(C1=CC(=O)C(C)(C2CCCCC2)O1)c1ccccc1` (configuration not stated): 85 to 87 °C. In turn, `COc1ccc(-c2[nH]nc3c2C(=O)c2c(NC(=O)Cc4ccc5c(c4)OCCO5)cccc2-3)cc1` gave a melting point of 297 °C.

`COc1ccc2c(C=O)cccc2c1C(F)(F)F` had a melting point of 92 to 94 °C.

Consider `CNc1nc(-c2cccc(C#Cc3ccccc3)c2)c2cc(OC)c(OC)cc2n1`, for which the melting point lay within 102 to 104 °C. Take `CSc1nc2cccc3c2n1CC(N(C)C)C3` (configuration not stated): the melting point lay within 84 to 86 °C. In turn, `O=C(O)c1cccc2nc(OCC(F)(F)F)n(Cc3ccc(-c4ccccc4-c4nnn[nH]4)cc3)c12` gave a melting point of 204 to 206 °C. `CNc1nc(-c2cccc(-c3cccc(SC)c3)c2)c2cc(OC)c(OC)cc2n1` yielded a melting point of 195 to 197 °C.

The molecule `CN(C)CCOC(=O)CCc1c(C(=O)OCCN(C)C)[nH]c2cc(Cl)cc(Cl)c12` returned a melting point of 95 to 97 °C. With `O=C1c2ccc(Cl)cc2CC1Cl` (configuration not stated) the figure was 63 to 66 °C; with `CC(=O)Oc1ccc(-c2ccc(C=C(Br)Br)s2)cc1`, 115 to 116 °C. On to `Oc1ncnc2[nH]c(-c3ccccc3)cc12`, for which the melting point was over 300 °C.

Consider `COC(=O)c1nc2cc(Cl)cc(C)c2c(O)c1C(=O)OC`, for which the melting point is 117 to 119 °C. Regarding `Oc1ccc2c(c1)CCCC(c1ccccc1)=C2c1ccc(OCCCCCSCc2ccco2)cc1`, the melting point was 171 °C. In the case of `CCOC(=O)C(C)Oc1ccc2cc(Oc3c(Cl)cc(C(F)(F)F)cc3Cl)ccc2c1` (configuration not stated), the melting point fell in the range of 118 to 120 °C. On to `CCS(=O)(=O)c1ccc(C(CC2CCCC2)C(=O)Nc2ccccn2)cc1` (configuration not stated), for which the melting point was 144 to 145 °C. As for `CCOC(=O)CC[C@H](NC(=O)c1ccc(NCCCc2c(N(C(C)=O)C(C)=O)nc(NC(C)=O)[nH]c2=O)c(OC)c1)C(=O)OCC`, the melting point was in the range of 73 to 84 °C. The molecule `Cc1ccc(S(=O)(=O)N2CCC(Sc3ccc(Cl)cc3)CC2)cc1` gave a melting point of 112 to 114 °C. The molecule `CC(O)c1csc(S(N)(=O)=O)c1` (configuration not stated) showed a melting point of 164 to 167 °C. In turn, `Cc1cc(C#N)cc(C)c1Nc1nc(Nc2ccc(C#N)cc2)ncc1Br` had a melting point of 277 to 280 °C. `CC(C)(C)n1nc2nc3n(c(=O)c2c1N)CCS3` showed a melting point of 154 to 158 °C. Turning to `CCOC(=O)c1cn(CCO)c2cc(Cl)c(F)cc2c1=O`, the melting point is 202 °C. `CCOC1OC(CO)C(COc2c(C(C)(C)C)cc(SC(C)(C)Sc3cc(C(C)(C)C)c(O)c(C(C)(C)C)c3)cc2C(C)(C)C)O1` (configuration not stated) displayed a melting point of 60 to 62 °C.

Turning to `COc1cccc(-c2cc3nccnc3[nH]2)c1`, the melting point lay within 194 to 196 °C.

In turn, `Cc1cc(-c2nc3cccnn3c2-c2ccnc(NC(=O)c3cccc4ccccc34)c2)ccc1F` yielded a melting point of 252 to 253 °C. Take `CCCCC/C=C\C/C=C\CCCCCCCC(=O)Nc1c(OC)cc(OC)cc1OC`: the melting point lay in the range of 87 to 89 °C. On to `COc1ccc(CN(C)CCCCc2ccc(NC(=O)c3cccc4c(=O)c5ccccc5[nH]c34)cc2)cc1OC`, for which the melting point worked out at 140 °C. With `Nc1ncc2cc(-c3c(F)cccc3F)c(N)nc2n1` the figure was over 300 °C; with `COc1ccccc1Oc1cccc2c1OC(=O)C2`, 171 to 172 °C. Next, `CC(C)CCCC(C)Cc1nc2c3ccsc3c3sccc3c2nc1CC(C)CCCC(C)C` (configuration not stated): 57.5 to 58.7 °C; `CC(=O)Nc1cc(OS(=O)(=O)c2ccc(C)cc2)nc(=N)n1OC(C)=O`: 196 to 200 °C. Next, `CCN1c2ncc(COc3cccc(C(N)=O)c3)cc2C(=O)N(C)c2ccc(Cl)nc21`: 96 to 98 °C; `COc1ccc(-n2c3ccccc3c3cc(C=C(C#N)c4ccc(F)c(F)c4F)ccc32)cc1`: 124 to 126 °C; `Cc1nn(-c2cc3nc(S)sc3cc2Br)c(=O)n1C(F)F`: 254 to 256 °C. `Cc1c(S(=O)(=O)c2ccc(=O)[nH]n2)oc2ccccc12` displayed a melting point of 182 to 183 °C. For `CCC(O)(CC)c1cccc(COc2ccc3c(-c4ccoc4)cc(C#N)cc3c2)n1`, the melting point was in the range of 115 to 116 °C. With `CCOC(=O)c1cn(Cc2ccc(OCc3csc(-c4ccccc4)n3)cc2)nc1-c1cccs1` the figure was 94 to 95 °C; with `CSCC(=O)[C@H](Cc1ccc(Cl)cc1)NC(=O)[C@H](CC(C)C)NC(=O)OCc1ccccc1`, 119 to 121 °C; with `O=C1c2ccc(NC(=O)C3CC3)cc2C(=O)c2cc(NC(=O)C3CC3)ccc21`, 352 °C.

In turn, `CC(C)(C)C(=O)c1c[nH]c2ncc(-c3ccc(C(=O)NC4CCCC4)s3)nc12` had a melting point of over 300 °C. With `CCCCCCCCCCOCCC(=O)O` the figure was 41.5 to 43.9 °C. `Cc1cccc(C)c1-n1c(C)c(C#N)c(=O)[nH]c1=O` gave a melting point of 302 to 303 °C. For `O=C1CCC(c2ccc3[nH]c(C(=O)O)cc3c2)=NN1`, the melting point was 185 to 187 °C.

In turn, `CC(=O)CCC(=O)c1ccccc1` displayed a melting point of 31 °C. In the case of `CCC(CC)N(OCc1ccccc1)C(=O)Nc1ccccc1`, the melting point lay in the range of 45 to 45.6 °C.

`FC(F)(F)c1ccc2nc(N3CCN(c4ncccc4Cl)CC3)[nH]c2c1` had a melting point of 208 to 210 °C. `CN1CC(=O)Nc2ccc(C(F)(F)F)cc2C1=O` returned a melting point of 203 to 206 °C. With `CCNc1nc(Cl)c(SC)c(Cl)n1` the figure was 147 °C. With `CC(Oc1cccc(OCc2ccc3ccc(Br)cc3n2)c1)C(=O)O` (configuration not stated) the figure was 178 °C.

The values are drawn from a melting point compilation (Tetko et al.; mined from patent text by program, amines drawn as free bases though some values may be those of a salt).
